Patent publication US20230052601A1, “HALO ACTIVE AROMATIC SULFONAMIDE PHARMACEUTICAL COMPOSITIONS FOR INTERNAL USE” (priority 2021, published 2023)

System: P. aeruginosa
Test: Flame burn injury with subcutaneous P. aeruginosa infection in mice, survival (Example 3)
Type: in vivo
Details: burned mice infected with P. aeruginosa; 1 mg then six doses of 0.5 mg subcutaneously; observed seven days; five treated animals; controls 4 of 11 survived; Fisher exact 0.0337
Experimental: Adult mice (n=16) received a ˜20% flame burn injury, followed by resuscitation with two doses of 0.5 mL of saline and […] of tramadol for analgesia. After 5 minutes, they were infected with P. aeruginosa subcutaneously under the burn wound. 20 minutes post injury, five of the animals received 1 mg of BENZ subcutaneously in 0.25 ml saline, followed by six doses of 0.5 mg of BENZ subcutaneously also in 0.25 ml saline, approximately 8-12 hours apart. The animals were observed several times daily for seven days.

O=C(O)c1ccc(S(=O)(=O)NCl)cc1 [BENZ, N-chloro-4-carboxybenzenesulfonamide]
survival of treated animals: all five survived
